Each structure is given as a SMILES string.

The test system of the assay is cells. Kind of assay: cell cycle effect (G2/M). The format is cell-based. Particulars: cell line not stated; "Experiments show that".

Regarding `N=C(N)c1ccc(OCCCCCOc2ccc(C(=N)N)cc2)cc1` [pentamidine], the “effect on cell cycle” value is “maintain cells in the G2/M cell cycle”.

For the origin of these results see patent US7875614B2, “Phthalazinones” (Merck Patent GmbH, priority 2005, dated 2011).
